{"source": "paper PMC9323955", "about": "“Synthesis and Evaluation of Small Molecule Drug Conjugates Harnessing Thioester-Linked Maytansinoids” (Pharmaceutics, 2022)", "key": {"[1]": {"test_system": "HCC1806 human triple-negative breast cancer tumors", "test": "HCC1806 xenograft tumor efficacy", "type": "in vivo, female nude mice", "procedure": "Cancer cells suspended in RPMI 1640 medium (11835-030, Thermo Fisher Scientific, Waltham, MA, USA) were mixed with Matrigel™ (356237, BD Biosciences, Franklin Lakes, NJ, USA) in a 1:1 ratio. Human triple-negative breast cancer HCC1806 (1 × 10^6 cells) cells were inoculated subcutaneously into the left flank of 6-week-old female nude mice (BioLASCO Taiwan, Taipei, Taiwan) using a 1 mL syringe with a 24G needle (AN-2425R, Terumo Medical Corp., Tokyo, Japan). Tumor dimensions were measured twice weekly using electronic calipers (FOW54-200-777, PRO-MAX), and the volume of tumor grown subcutaneously (mm^3) was calculated by the formula Volume = (length × width^2)/2. A combination of 10% DMA/20% Cremophor EL/70% 5% dextrose injection (D5W) was formulated to treat HCC1806 xenograft tumors. Mice with HCC1806 tumors were grouped and administered the indicated dosing regimen of 1 mg/kg for the conjugate and 0.3 mg/kg for the cytotoxic payloads DM1 and DM4 twice-weekly (day 1 and day 4) for 2 weeks when the mean tumor volume was approximately 200–250 mm^3 or 850–900 mm^3 (large tumors). The conjugate dose of 2 mg/kg was administered weekly for the large tumor study. The body weight and tumor volume of mice were measured twice weekly. In addition, a previously reported oncogene-induced, sorafenib-resistant HCC mouse model was used in the current study to examine the antitumor activities of synthesized compounds. Briefly, plasmids including transposase (pCMV(CAT)T7-SB100), human Akt1, and luciferase (pKT2/CLP-AKT-2A-OVA-HBc-HBs-LUC) and the N-Ras V12 mutant (pT/Caggs-NRASV12) were hydrodynamically injected (HDI) and the liver was monitored for the appearance of HCC. HCC mice with a total flux of more than 1 × 10^9 photons/s from IVIS imaging were used as treatment conjugates. The indicated conjugate was administered intravenously at 1 mg/kg 3 times per week over 2 weeks. IVIS imaging was repeatedly performed to follow tumor progression, and tumor tissue from treated HCC mice was collected for histological examination and RNA extraction after administration."}, "[2]": {"test": "Plasma stability, 24 h incubation with plasma (HPLC)", "type": "in vitro ADME", "procedure": "Zn8_DM1: 0H VS. 24H in plasma.\nZn10_DM4: 0H VS. 24H in plasma.\nSupporting Figure S1. Incubation of Linker-drug 3 and 4, conjugates Zn8_DM1 and\nZn10_DM4, DM1 and DM4 with plasma for 24 hrs. HPLC condition is listed below. […]"}, "[3]": {"test": "PS SPR binding assay (Biacore T200, L1 chip)", "conditions": "DOPC/DOPS (3:1, v/v) liposomes on L1 chip, 25 °C", "procedure": "Phospholipids, 1,2-dioleoyl-sn-glycero-3-phosphocholine (DOPC) and 1,2-dioleoyl-sn-glycero-3-[phosphate-L-serine] (DOPS) were obtained as chloroform solutions from Avanti Polar Lipids (Alabaster, AL, USA). These stock solutions were mixed in the specified proportions. A 0.4 mL aliquot of the lipid solution at a 10 mg/mL concentration was added to a round bottom flask and evaporated under a stream of N2 to provide a thin lipid film. The lipid films were rehydrated in PBS buffer for at least 1 h at room temperature. The resulting suspension was extruded through a 100 nm polycarbonate filter using an Avanti MiniExtruder according to the manufacturer’s instructions. Zeta potential (ZP) and liposome size distribution were recorded by dynamic light scattering (DLS) and microelectrophoresis using a Zetasizer Nano ZS instrument. The binding kinetics between conjugates and liposomes were recorded at 25 °C using a Biacore T200 biosensor equipped with an L1 sensor chip (GE Healthcare, Chicago, IL, USA). The new sensor chip was pretreated with running buffer (5% DMSO in phosphate buffered saline (PBS) at a pH of 7.4) and two consecutive 30 s pulses of 2:3 v/v 50 mM HCl/isopropanol at a flow rate of 30 μL/min. New liposome capture plates were prepared for each binding cycle. In PBS buffer, liposomes are diluted to 0.5–1 mM and captured to saturation in isolated flow cells at 2–5 μL/min (30–150 s). […]"}}, "note": "Entries after “also recorded” stand apart in the source; their conditions may differ.", "data": [{"molecule": "COc1cc2cc(c1Cl)N(C)C(=O)CC(OC(=O)C(C)N(C)C(=O)CCSC(=O)c1ccc(CN(CCOCCOCCNC(=O)c3ccc(CN(CCCCOc4cc(CN(Cc5ccccn5)Cc5ccccn5)cc(CN(Cc5ccccn5)Cc5ccccn5)c4)C(=O)C4(c5ccc(Cl)cc5)CCCCC4)cc3)C(=O)C3(c4ccc(Cl)cc4)CCCCC3)cc1)C1(C)OC1C(C)C1CC(O)(NC(=O)O1)C(OC)C=CC=C(C)C2.O=[N+]([O-])[O-].O=[N+]([O-])[O-].O=[N+]([O-])[O-].O=[N+]([O-])[O-].[Zn+2].[Zn+2]", "note": "(stereo not shown) [Zn8_DM1]", "values": [{"measurement": "anti-HCC1806 tumor growth activity", "setting": "[1]; 1 mg/kg i.v. twice weekly for 2 weeks, tumors 200–250 mm^3", "value": "significant activities; also recorded: shrinkage of HCC1806 tumor growth"}, {"measurement": "effect on large HCC1806 tumors", "setting": "[1]; 2 mg/kg per week for two weeks, tumors ~900 mm^3", "value": "could readily arrest or shrink the growth of larger tumors"}, {"measurement": "cleavage of the maytansinoid after incubation with plasma", "setting": "[2]", "value": "No cleavage"}, {"measurement": "association with PS-coated liposomes (SPR)", "setting": "[3]", "value": "still allowed recognition"}]}]}
